Results: article PMC9160031, “Identification of HMGCR as the anticancer target of physapubenolide against melanoma cells by in silico target prediction” (Acta Pharmacologica Sinica, 2021)

Target: T1, 3-hydroxy-methylglutaryl CoA reductase (HMGCR) (Homo sapiens, UniProt P04035)
T1 sequence (P04035 1-888): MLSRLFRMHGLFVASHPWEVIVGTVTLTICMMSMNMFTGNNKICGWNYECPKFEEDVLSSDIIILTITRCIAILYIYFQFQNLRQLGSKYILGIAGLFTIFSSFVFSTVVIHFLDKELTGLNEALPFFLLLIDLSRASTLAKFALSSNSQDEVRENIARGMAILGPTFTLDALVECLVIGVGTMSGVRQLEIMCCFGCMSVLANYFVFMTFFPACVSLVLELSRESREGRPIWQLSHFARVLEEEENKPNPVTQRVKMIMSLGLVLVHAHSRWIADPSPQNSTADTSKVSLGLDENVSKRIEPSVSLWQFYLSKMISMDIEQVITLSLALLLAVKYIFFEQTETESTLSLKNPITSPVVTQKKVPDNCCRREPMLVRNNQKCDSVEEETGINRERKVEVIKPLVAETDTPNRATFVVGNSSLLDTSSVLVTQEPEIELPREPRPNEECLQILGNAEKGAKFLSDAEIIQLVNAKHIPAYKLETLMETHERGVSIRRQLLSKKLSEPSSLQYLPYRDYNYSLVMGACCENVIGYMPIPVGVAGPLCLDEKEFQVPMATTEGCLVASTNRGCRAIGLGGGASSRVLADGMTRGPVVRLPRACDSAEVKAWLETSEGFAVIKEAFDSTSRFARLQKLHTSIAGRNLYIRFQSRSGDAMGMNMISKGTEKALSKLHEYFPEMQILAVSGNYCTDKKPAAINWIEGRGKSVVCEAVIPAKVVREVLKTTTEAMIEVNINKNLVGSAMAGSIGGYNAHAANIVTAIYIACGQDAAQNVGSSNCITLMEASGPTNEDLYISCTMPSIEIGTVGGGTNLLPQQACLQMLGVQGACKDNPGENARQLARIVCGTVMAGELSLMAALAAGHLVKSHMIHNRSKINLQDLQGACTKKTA
Test: SPR direct binding assay (PB listed as stationary phase)

## CC(=O)O[C@H]1CC([C@H](C)C2CC(C)=C(C)C(=O)O2)[C@@]2(C)CCC3C(C[C@H]4O[C@]45[C@@H](O)C=CC(=O)[C@]35C)[C@]12O (stereo partly shown) [PB, Physapubenolide]
  Kd: 1460 nM
